From patent US8034812B2, “Imidazopyridazine derivative having kinase inhibitory activity and pharmaceutical agent thereof” (Takeda Pharmaceutical Company Limited, priority 2006, dated 2011)

molecular target: T1, BRAF (V600E) enzyme (Homo sapiens, UniProt P15056, V600E); test: Determination of BRAF (V600E) kinase inhibitory activity ([γ-32P]ATP, GST-MEK1 (K96R) substrate); assay type: biochemical; settings: read-out: BRAF (V600E) kinase inhibitory rate
T1 construct: area encoding the BRAF kinase domain region, so that the protein contains an N-terminal Flag; made in house; host or cells: SF-21 insect cells, recombinant baculovirus BAC-V600E
T1 sequence (P15056 457-717 V600E limits assumed): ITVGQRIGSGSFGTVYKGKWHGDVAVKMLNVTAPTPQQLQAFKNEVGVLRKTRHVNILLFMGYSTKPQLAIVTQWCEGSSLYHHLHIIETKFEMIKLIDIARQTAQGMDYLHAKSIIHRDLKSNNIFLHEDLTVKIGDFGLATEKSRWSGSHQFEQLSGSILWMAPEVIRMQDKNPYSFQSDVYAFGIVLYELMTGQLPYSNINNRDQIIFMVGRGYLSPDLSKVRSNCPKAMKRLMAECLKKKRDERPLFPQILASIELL
Procedure: Human BRAF gene was cloned by PCR using human Testis cDNA library (Clontech) as a template. The primer used for PCR was prepared from base sequence (Genbank Accession NM_004333) information of BRAF gene by adding a base sequence encoding flag peptide and a recognition sequence of the restriction enzyme to area encoding the BRAF kinase domain region, so that the protein contains an N-terminal Flag. The primer base sequence is shown below.
The PCR reaction was conducted using Pyrobest (Takara Shuzo Co., Ltd). The obtained PCR product was electrophoresed on agarose gel (1%), the DNA fragment amplified by PCR was recovered from the gel, and then digested with restriction enzymes EcoRI and SalI. The DNA treated with the restriction enzymes was electrophoresed on agarose gel (1%), and the obtained DNA fragment was recovered and ligated to plasmid pFASTBAC1 (Invitrogen) digested with restriction enzymes EcoRI and SalI to give expression plasmid pFB-BRAF, and the base sequence of the insert fragment was confirmed. In addition, mutation was introduced into V600E using a Quick change Site Directed Mutagenesis kit (Stratagene). The nucleotide sequences of the primers used are shown in the following.
SF-21 cells were sown at 1×10^6 cells/mL to Sf-900II SFM medium (1 L, Invitrogen) containing 10% fetal bovine serum (Trace), 50 mg/L Gentamicin (Invitrogen) and 0.1% Pluronic F-68 (Invitrogen), and shaking culture was performed using a 2 L volume Erlenmeyer flask at 27° C., 100 rpm. After culturing for 24 hrs, recombinant baculovirus BAC-V600E (13.4 mL) was added to the mixture, and the mixture was further cultured for 3 days. The culture medium was centrifuged at 2,000 rpm for 5 min to give virus-infected cells. The infected cells were washed with a phosphate buffered saline (Invitrogen), centrifuged under the same conditions, and the cells were preserved at −80° C. The cryopreserved cells were thawed in ice, suspended in buffer A (50 mM Tris buffer (30 mL, pH 7.4) containing 20% glycerol, 0.15 M NaCl) supplemented with Complete Protease Inhibitor (Boehringer), and ruptured 3 times with a Polytron homogenizer (Kinematica) at 20,000 rpm for 30 sec. The ruptured medium was clarified by centrifugation at 40,000 rpm for 30 min and filtered with a 0.45 μm filter. The filtrate was passed through a column packed with Anti-FLAG M2 Affinity Gel (4 mL, Sigma) at a flow rate of about 0.5 mL/min. The column was washed with buffer A, and eluted with buffer A containing 100 μg/mL of FLAG peptide. The buffer of this concentrate was exchanged using NAP25 column (Amersham Bioscience) equilibrated with buffer A and the fractions were cryopreserved at −80° C.
A test compound (2.5 μl) dissolved in dimethyl sulfoxide (DMSO) was added to 37.5 μl of a reaction solution (25 mM HEPES (pH 7.5), 10 mM magnesium acetate, 1 mM dithiothreitol) containing BRAF (V600E) enzyme (30 ng) and recombinant type protein GST-MEK1 (K96R) 250 ng, and the mixture was incubated at room temperature for 10 min. ATP solution (10 μl) (2.5 μM ATP, 0.1 μCi [γ-^32P]ATP) was added to the obtained mixture, and the mixture was reacted at room temperature for 20 min. The reaction was quenched by adding 50 μL of ice-cooled 20% trichloroacetic acid (Wako Pure Chemical Industries, Ltd.). The reaction solution was allowed to stand at 4° C. for 30 min, and the acid-precipitable fraction was transferred to GF/C filter plate (Millipore Corporation) using cell harvester (PerkinElmer). The plate was dried at 45° C. for 60 min, and 40 μL of MicroScinti 0 (PerkinElmer) was added thereto. The radioactivity was measured using TopCount (PerkinElmer). The kinase inhibitory rate (%) of the test compound was calculated by the following formula: Inhibitory rate(%)=(1−(count of test compound−blank)÷(control−blank))×100
The count of the solution reacted without addition of the compound was used as a “control”, and the count of the solution without the compound and enzyme was used as a “blank”. […]

Inhibition at 1 µM, ≥ 90%:
O=C(Nc1cccc(Sc2ccc3nc(NC(=O)C4CC4)cn3n2)c1)c1cccc(C(F)(F)F)c1 [Example 427, N-[3-({2-[(cyclopropylcarbonyl)amino]imidazo[1,2-b]pyridazin-6-yl}thio)phenyl]-3-(trifluoromethyl)benzamide]
Cc1ccc(Oc2ccc3nc(NC(=O)C4CC4)cn3n2)cc1NC(=O)c1cccc(C(C)(C)C#N)c1 [Example 330, 3-(1-cyano-1-methylethyl)-N-[5-({2-[(cyclopropylcarbonyl)amino]imidazo[1,2-b]pyridazin-6-yl}oxy)-2-methylphenyl]benzamide]
O=C(Nc1cccc(Oc2ccc3nc(NC(=O)C4CC4)cn3n2)c1)Nc1cccc(C(F)(F)F)c1 [Example 431, N-{6-[3-({[3-(trifluoromethyl)phenyl]carbamoyl}amino)phenoxy]imidazo[1,2-b]pyridazin-2-yl}cyclopropanecarboxamide]
CN(C)CC(=O)Nc1cn2nc(Oc3cccc(NC(=O)c4cccc(C(F)(F)F)c4)c3)ccc2n1 [Example 398, N-[3-({2-[(N,N-dimethylglycyl)amino]imidazo[1,2-b]pyridazin-6-yl}oxy)phenyl]-3-(trifluoromethyl)benzamide]
O=C(Nc1cccc(Oc2ccc3nc(NC(=O)C4CC4)cn3n2)c1)c1cccc(C(F)(F)F)c1 [Example 319, N-[3-({2-[(cyclopropylcarbonyl)amino]imidazo[1,2-b]pyridazin-6-yl}oxy)phenyl]-3-(trifluoromethyl)benzamide]
CNc1nccc(Nc2cn3nc(Oc4cccc(NC(=O)c5cccc(C(F)(F)F)c5)c4)ccc3n2)n1 [Example 70, N-{3-[(2-{[2-(methylamino)pyrimidin-4-yl]amino}imidazo[1,2-b]pyridazin-6-yl)oxy]phenyl}-3-(trifluoromethyl)benzamide]
